Assay results published in patent publication US11596644B2, “Method for treating post-prandial hypoglycemia” (AVOLYNT, priority 2018, dated 2023).

Assays:
rat SGLT1 = molecular target: T1, rat SGLT1 (Rattus norvegicus, UniProt P53790); assay: Inhibition of radiolabeled α-MG uptake into COS-7 cells transfected with rat SGLT1 (Dixon plot); assay type: cell-based
T1 construct: expressed in transfected cells; host or cells: COS-7
T1 sequence (P53790 1-665): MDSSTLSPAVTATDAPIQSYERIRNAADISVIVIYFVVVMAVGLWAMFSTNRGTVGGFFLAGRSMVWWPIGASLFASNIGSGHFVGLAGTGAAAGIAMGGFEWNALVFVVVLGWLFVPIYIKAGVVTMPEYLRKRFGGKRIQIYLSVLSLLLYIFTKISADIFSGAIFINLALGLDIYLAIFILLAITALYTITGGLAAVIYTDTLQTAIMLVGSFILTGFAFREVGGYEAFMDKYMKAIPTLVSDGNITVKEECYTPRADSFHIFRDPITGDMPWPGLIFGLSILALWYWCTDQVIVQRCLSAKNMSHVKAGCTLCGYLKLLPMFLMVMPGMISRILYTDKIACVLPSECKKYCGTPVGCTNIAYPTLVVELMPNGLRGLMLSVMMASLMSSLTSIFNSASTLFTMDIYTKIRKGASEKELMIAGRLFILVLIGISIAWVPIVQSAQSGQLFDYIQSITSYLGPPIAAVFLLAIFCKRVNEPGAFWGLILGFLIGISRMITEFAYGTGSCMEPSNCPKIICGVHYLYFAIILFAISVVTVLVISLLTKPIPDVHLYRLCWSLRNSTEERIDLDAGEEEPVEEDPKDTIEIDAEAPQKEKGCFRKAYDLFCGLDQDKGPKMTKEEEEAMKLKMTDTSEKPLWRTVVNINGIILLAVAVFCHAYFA
Experimental: Selective inhibition study. Inhibition constants (Ki) of mizagliflozin for rat and human SGLT1 and SGLT2 were determined measuring concentration-dependent effects of test compound on uptake of radiolabeled methyl-α-D-glucopyranoside (α-MG) into COS-7 cells transiently transfected with cloned SGLT1 or SGLT2. Mizagliflozin was assessed at concentrations from 1 to 30 μM and 3 to 100 μM for human and rat SGLT2, respectively. It was assessed at concentrations from 30 nM to 1 μM and 10 to 30 nM for human and rat SGLT1, respectively. α-MG test concentrations were 0.3 and 1 mM. Data were analyzed and Ki determined using Dixon plots of initial transport rates. […] Inhibition constants were also determined for human SGLT1 and SGLT2.

[1] = test system: healthy adult male volunteers; assay: Repeat dose study in humans, pharmacodynamic parameters after meals; assay type: in vivo, human; conditions: repeat dosing; for AUC 0-5 GIP / AUC 0-5 GLP-1 (active) / AUC 0-5 Insulin / AUC 0-5 glucose / GIP (peak) / GLP-1 (active) (peak) / Glucose (peak) / Insulin (peak) / Time (h) to peak, GIP / Time (h) to peak, GLP-1 (active) / Time (h) to peak, glucose / Time (h) to peak, insulin: Day 3 after breakfast
Experimental: Repeat dose study in humans. Oral doses of 2 mg, 5 mg, 10 mg, 20 mg, of mizagliflozin, placebo or miglitol 50 mg per dose three times daily to healthy adult male volunteers by a randomized, placebo-controlled, parallel-group, double-blind comparison method. The dose was orally administered with approximately 150 mL of water once daily immediately before breakfast on Days 1 and 13, and three times daily immediately before every meal on Days 3 to 12.
Changes in the following parameters and ΔAUC from 0 to t* hours after breakfast, lunch, and evening meal were measured: Blood glucose level, Serum insulin concentration, Blood active GLP-1 concentration, and Blood total GIP concentration, where t=0.5, 1, 1.5, 2, and 3 (t=0.5, 1, 1.5, 2, 3, and 5 only after breakfast).
In the miglitol group, hyperglycemia was suppressed after breakfast, lunch, and evening meal, as compared to the placebo group. […] These pharmacodynamic effects more or less persisted during 10-day repeated administration. There was no correlation between plasma mizagliflozin concentration and the pharmacodynamic effects. Measurements in Tables 5-8 were performed on Day 3 after breakfast.

Cc1cc(OCCCNCC(C)(C)C(N)=O)ccc1Cc1c(O[C@@H]2O[C@H](CO)[C@@H](O)[C@H](O)[C@H]2O)n[nH]c1C(C)C [mizagliflozin, 3-(3-{4-[3-(β-D-glucopyranosyloxy)-5-isopropyl-1H-pyrazol-4-ylmethyl-]-3-methylphenoxy}propylamino)-2,2-dimethylpropionamide]
mode of inhibition of SGLT1 (Dixon plot intersection pattern) (rat SGLT1; rat SGLT1): competitive with substrate
Ki (rat SGLT1; α-MG 0.3 and 1 mM, COS-7 cells): 31.2 nM
AUC 0-5 GIP ([1]; 2 mg per dose): 1096.21 pg·h/mL
AUC 0-5 GLP-1 (active) ([1]; 2 mg per dose): 21.21 pmol·h/L
AUC 0-5 Insulin ([1]; 2 mg per dose): 166.61 uU*h/ml
AUC 0-5 glucose ([1]; 2 mg per dose): 550.6 mg·h/dL
GIP (peak) ([1]; 2 mg per dose): 285 pg/mL
GLP-1 (active) (peak) ([1]; 2 mg per dose): 5.98 pmol/L
Glucose (peak) ([1]; 2 mg per dose): 131.6 mg/dL
Insulin (peak) ([1]; 2 mg per dose): 58.05 uU/ml
Time (h) to peak, GIP ([1]; 2 mg per dose): 3 h
Time (h) to peak, GLP-1 (active) ([1]; 2 mg per dose): 0.5 h
Time (h) to peak, glucose ([1]; 2 mg per dose): 1 h
Time (h) to peak, insulin ([1]; 2 mg per dose): 1.5 h
AUC 0-5 GIP ([1]; 5 mg per dose): 1057.89 pg·h/mL
AUC 0-5 GLP-1 (active) ([1]; 5 mg per dose): 22.36 pmol·h/L
AUC 0-5 Insulin ([1]; 5 mg per dose): 146.08 uU*h/ml
AUC 0-5 glucose ([1]; 5 mg per dose): 524.6 mg·h/dL
GIP (peak) ([1]; 5 mg per dose): 280.88 pg/mL
GLP-1 (active) (peak) ([1]; 5 mg per dose): 5.95 pmol/L
Glucose (peak) ([1]; 5 mg per dose): 118.6 mg/dL
Insulin (peak) ([1]; 5 mg per dose): 44 uU/ml
Time (h) to peak, GIP ([1]; 5 mg per dose): 3 h
Time (h) to peak, GLP-1 (active) ([1]; 5 mg per dose): 0.5 h
Time (h) to peak, glucose ([1]; 5 mg per dose): 1.5 h
Time (h) to peak, insulin ([1]; 5 mg per dose): 2 h
AUC 0-5 GIP ([1]; 10 mg per dose): 839.7 pg·h/mL
AUC 0-5 GLP-1 (active) ([1]; 10 mg per dose): 41.12 pmol·h/L
AUC 0-5 Insulin ([1]; 10 mg per dose): 176.7 uU*h/ml
AUC 0-5 glucose ([1]; 10 mg per dose): 541.3 mg·h/dL
GIP (peak) ([1]; 10 mg per dose): 240.75 pg/mL
GLP-1 (active) (peak) ([1]; 10 mg per dose): 10.01 pmol/L
Glucose (peak) ([1]; 10 mg per dose): 121.3 mg/dL
Insulin (peak) ([1]; 10 mg per dose): 55.13 uU/ml
Time (h) to peak, GIP ([1]; 10 mg per dose): 3 h
Time (h) to peak, GLP-1 (active) ([1]; 10 mg per dose): 0.5 h
Time (h) to peak, glucose ([1]; 10 mg per dose): 1.5 h
Time (h) to peak, insulin ([1]; 10 mg per dose): 1 h
AUC 0-5 GIP ([1]; 20 mg per dose): 755.01 pg·h/mL
AUC 0-5 GLP-1 (active) ([1]; 20 mg per dose): 24.74 pmol·h/L
AUC 0-5 Insulin ([1]; 20 mg per dose): 142.25 uU*h/ml
AUC 0-5 glucose ([1]; 20 mg per dose): 522.4 mg·h/dL
GIP (peak) ([1]; 20 mg per dose): 217.15 pg/mL
GLP-1 (active) (peak) ([1]; 20 mg per dose): 6.01 pmol/L
Glucose (peak) ([1]; 20 mg per dose): 121 mg/dL
Insulin (peak) ([1]; 20 mg per dose): 47.69 uU/ml
Time (h) to peak, GIP ([1]; 20 mg per dose): 3 h
Time (h) to peak, GLP-1 (active) ([1]; 20 mg per dose): 0.5 h
Time (h) to peak, glucose ([1]; 20 mg per dose): 1.5 h
Time (h) to peak, insulin ([1]; 20 mg per dose): 1.5 h
active GLP-1 concentration ([1]; healthy adult male volunteers): a tendency toward increase in active GLP-1 concentration was seen
hyperglycemia after breakfast, lunch, and evening meal ([1]; healthy adult male volunteers): suppressed after breakfast, lunch, and evening meal on a level equivalent to the miglitol group
insulin secretion ([1]; healthy adult male volunteers): inhibition of insulin secretion along with inhibition of hyperglycemia was seen the same as in the miglitol group
total GIP concentration ([1]; healthy adult male volunteers): increase in total GIP concentration was seen on a level equivalent to the miglitol group
total GLP-1 concentration ([1]; healthy adult male volunteers): increase in total GLP-1 concentration was seen on a level equivalent to the miglitol group
